Experimental data from PubChem BioAssay (NCI).
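Cells were grown in 96-well plates and exposed to each compound for 48 hours at five concentrations; endpoints were interpolated linearly between bracketing concentrations, or set to the highest concentration if not reached. GI50 marks 50% less growth. TGI: concentration producing complete growth inhibition.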

How the values were obtained:
Test in all cases: NCI tumour cell line growth inhibition, 48 h
786-0 renal = test system: 786-0 renal
A498 renal = test system: A498 renal
A549 NSCLC = test system: A549 NSCLC
ACHN renal = test system: ACHN renal
BT-549 breast = test system: BT-549 breast
CAKI-1 renal = test system: CAKI-1 renal
CCRF-CEM leukemia = test system: CCRF-CEM leukemia
COLO 205 colon = test system: COLO 205 colon
DU-145 prostate = test system: DU-145 prostate
EKVX NSCLC = test system: EKVX NSCLC
HCC-2998 colon = test system: HCC-2998 colon
HCT-116 colon = test system: HCT-116 colon
HCT-15 colon = test system: HCT-15 colon
HL-60(TB) leukemia = test system: HL-60(TB) leukemia
HOP-62 NSCLC = test system: HOP-62 NSCLC
HOP-92 NSCLC = test system: HOP-92 NSCLC
HS 578T breast = test system: HS 578T breast
HT29 colon = test system: HT29 colon
K-562 leukemia = test system: K-562 leukemia
KM12 colon = test system: KM12 colon
LOX IMVI melanoma = test system: LOX IMVI melanoma
M14 melanoma = test system: M14 melanoma
MCF7 breast = test system: MCF7 breast
MDA-MB-231 breast = test system: MDA-MB-231 breast
MDA-MB-435 = test system: MDA-MB-435
MOLT-4 leukemia = test system: MOLT-4 leukemia
NCI-H226 lung = test system: NCI-H226 lung
NCI-H23 lung = test system: NCI-H23 lung
NCI-H460 lung = test system: NCI-H460 lung
NCI-H522 lung = test system: NCI-H522 lung
NCI/ADR-RES ovarian = test system: NCI/ADR-RES ovarian
OVCAR-3 ovarian = test system: OVCAR-3 ovarian
OVCAR-4 ovarian = test system: OVCAR-4 ovarian
OVCAR-5 ovarian = test system: OVCAR-5 ovarian
PC-3 prostate = test system: PC-3 prostate
RPMI-8226 leukemia = test system: RPMI-8226 leukemia
RXF 393 renal = test system: RXF 393 renal
SF-268 CNS = test system: SF-268 CNS
SF-295 CNS = test system: SF-295 CNS
SF-539 CNS = test system: SF-539 CNS
SK-MEL-2 melanoma = test system: SK-MEL-2 melanoma
SK-MEL-28 melanoma = test system: SK-MEL-28 melanoma
SK-MEL-5 melanoma = test system: SK-MEL-5 melanoma
SK-OV-3 ovarian = test system: SK-OV-3 ovarian
SNB-19 CNS = test system: SNB-19 CNS
SNB-75 CNS = test system: SNB-75 CNS
SR leukemia = test system: SR leukemia
SW-620 colon = test system: SW-620 colon
T-47D breast = test system: T-47D breast
TK-10 renal = test system: TK-10 renal
U251 CNS = test system: U251 CNS
UACC-62 melanoma = test system: UACC-62 melanoma
UO-31 renal = test system: UO-31 renal

COc1ccc2c(CCC(c3ccccc3)c3ccccc3)c3[n+](cc2c1OC)CCc1cc2c(cc1-3)OCO2
GI50 (786-0 renal): 1.09 µM | TGI (786-0 renal): 2.5 µM | GI50 (A498 renal): 1.31 µM | TGI (A498 renal): 6.8 µM | GI50 (A549 NSCLC): 1.55 µM | TGI (A549 NSCLC): 5.07 µM | GI50 (ACHN renal): 1.29 µM | TGI (ACHN renal): 5.22 µM | GI50 (BT-549 breast): 0.268 µM | TGI (BT-549 breast): 1.35 µM | GI50 (CAKI-1 renal): 3.94 µM | TGI (CAKI-1 renal): 16.1 µM | GI50 (CCRF-CEM leukemia): < 0.0398 µM | TGI (CCRF-CEM leukemia): 2.71 µM | GI50 (COLO 205 colon): 0.0831 µM | TGI (COLO 205 colon): 0.619 µM | GI50 (DU-145 prostate): 0.348 µM | TGI (DU-145 prostate): 1.8 µM | GI50 (EKVX NSCLC): 0.492 µM | TGI (EKVX NSCLC): 7.25 µM | GI50 (HCC-2998 colon): 0.326 µM | TGI (HCC-2998 colon): 1.93 µM | GI50 (HCT-116 colon): 0.202 µM | TGI (HCT-116 colon): 1.27 µM | GI50 (HCT-15 colon): 2.28 µM | TGI (HCT-15 colon): 7.43 µM | GI50 (HL-60(TB) leukemia): 0.0822 µM | TGI (HL-60(TB) leukemia): 0.526 µM | GI50 (HOP-62 NSCLC): 0.546 µM | TGI (HOP-62 NSCLC): 1.8 µM | GI50 (HOP-92 NSCLC): 0.15 µM | TGI (HOP-92 NSCLC): 0.596 µM | GI50 (HS 578T breast): 0.799 µM | TGI (HS 578T breast): 3.82 µM | GI50 (HT29 colon): 0.139 µM | TGI (HT29 colon): 1.31 µM | GI50 (K-562 leukemia): 0.327 µM | TGI (K-562 leukemia): 3.01 µM | GI50 (KM12 colon): 0.16 µM | TGI (KM12 colon): 1.19 µM | GI50 (LOX IMVI melanoma): 0.255 µM | TGI (LOX IMVI melanoma): 1.36 µM | GI50 (M14 melanoma): 0.296 µM | TGI (M14 melanoma): 1.74 µM | GI50 (MCF7 breast): 0.483 µM | TGI (MCF7 breast): 3.22 µM | GI50 (MDA-MB-231 breast): 1.1 µM | TGI (MDA-MB-231 breast): 3.48 µM | GI50 (MDA-MB-435): 0.143 µM | TGI (MDA-MB-435): 1.41 µM | GI50 (MOLT-4 leukemia): 0.381 µM | TGI (MOLT-4 leukemia): 3.04 µM | GI50 (NCI-H226 lung): 1.56 µM | TGI (NCI-H226 lung): 5.33 µM | GI50 (NCI-H23 lung): 0.242 µM | TGI (NCI-H23 lung): 1.94 µM | GI50 (NCI-H460 lung): 0.0123 µM | TGI (NCI-H460 lung): 1.03 µM | GI50 (NCI-H522 lung): 0.122 µM | TGI (NCI-H522 lung): 0.858 µM | GI50 (NCI/ADR-RES ovarian): 13.1 µM | TGI (NCI/ADR-RES ovarian): 55.7 µM | GI50 (OVCAR-3 ovarian): 0.028 µM | TGI (OVCAR-3 ovarian): 1.3 µM | GI50 (OVCAR-4 ovarian): 0.271 µM | TGI (OVCAR-4 ovarian): 1.51 µM | GI50 (OVCAR-5 ovarian): 1.76 µM | TGI (OVCAR-5 ovarian): 5.95 µM | GI50 (PC-3 prostate): 0.112 µM | TGI (PC-3 prostate): 0.837 µM | GI50 (RPMI-8226 leukemia): 0.0507 µM | TGI (RPMI-8226 leukemia): 1.72 µM | GI50 (RXF 393 renal): 0.686 µM | TGI (RXF 393 renal): 2.2 µM | GI50 (SF-268 CNS): 0.519 µM | TGI (SF-268 CNS): 1.98 µM | GI50 (SF-295 CNS): 0.732 µM | TGI (SF-295 CNS): 3.99 µM | GI50 (SF-539 CNS): 0.846 µM | TGI (SF-539 CNS): 3.67 µM | GI50 (SK-MEL-2 melanoma): 0.0705 µM | TGI (SK-MEL-2 melanoma): 1.04 µM | GI50 (SK-MEL-28 melanoma): 0.462 µM | TGI (SK-MEL-28 melanoma): 2.06 µM | GI50 (SK-MEL-5 melanoma): 0.0383 µM | TGI (SK-MEL-5 melanoma): 0.214 µM | GI50 (SK-OV-3 ovarian): 0.593 µM | TGI (SK-OV-3 ovarian): 1.74 µM | GI50 (SNB-19 CNS): 0.242 µM | TGI (SNB-19 CNS): 1.74 µM | GI50 (SNB-75 CNS): 0.266 µM | TGI (SNB-75 CNS): 1.84 µM | GI50 (SR leukemia): 0.373 µM | TGI (SR leukemia): 3.24 µM | GI50 (SW-620 colon): 0.315 µM | TGI (SW-620 colon): 1.63 µM | GI50 (T-47D breast): 0.241 µM | TGI (T-47D breast): 1.76 µM | GI50 (TK-10 renal): 0.339 µM | TGI (TK-10 renal): 1.58 µM | GI50 (U251 CNS): 0.172 µM | TGI (U251 CNS): 1.38 µM | GI50 (UACC-62 melanoma): 0.153 µM | TGI (UACC-62 melanoma): 1.76 µM | GI50 (UO-31 renal): 3.2 µM | TGI (UO-31 renal): 13.3 µM
